From patent US6958324B2, “Inosine compounds and their use for treating or preventing an inflamation or a reperfusion disease” (Inotek Pharmaceuticals Corporation, priority 1998, dated 2005) come the findings set out here.

Holding throughout (type): in vivo
The test system of test [1] is DBA/1J mice. As to the kind of experiment: Collagen-induced arthritis: MPO and MDA levels in paws. Conditions: 100 or 200 mg/kg/day, BID, gavage; paws 24 days after second collagen injection. Here is the method: (§1) Mice were evaluated daily for arthritis by using a macroscopic scoring system ranging from 0-4 (0=no signs of arthritis, 1=swelling or redness of the paw or one digit, 2=two joints involved, 3=more than 2 joints involved, 4=severe arthritis of the entire paw). The arthritic index for each mouse was calculated by adding the four scores of the individual paws. […] At study termination, paws were removed from all animals in each treatment group and randomly assigned to MPO, MDA or chemokines/cytokine measurements.
The effect of 5′-IMS on the levels of MPO and MDA in paws of DBA/1J mice treated with subdermal injections of collagen to induce arthritis was studied. Gavage treatment with 5′-IMS (100 or 200 mg/kg/day, BID) commenced on the day of the second collagen injection and paws were taken 24 days later and homogenized for MPO and MDA measurements. Data are expressed as mean ±SEM from n=10 animals. […] Accordingly, 5′-IMS, an illustrative inosine compound, is useful for treating or preventing an inflammation disease, particularly arthritis, in a patient.

The next test concerns DSS mice. As to the kind of experiment: DSS colitis, inosine versus 5′-IMS at 50, 100 and 300 μmoles/kg/day. The text has this: The effect of various doses (50, 100 and 300 μmoles/kg/day) inosine and IMS on the outcome of DSS (dextran sodium sulfate) colitis in mice. Colonic length, gross histologic score, colonic MDA content and colonic MPO content have been determined. N=10 animals per experimental groups. *p<0.05 and **p<0.01 indicates significant improvements in drug treated DSS animals, when compared to vehicle treated DSS animals. Mean +SEM are presented, except for histological scores, which are presented as medians.
Significant improvements in 5′-IMS treated DSS animals was observed as compared to vehicle treated DSS animals. Mean ±SEM are shown, except for the histological scores, which are presented as medians.

Test [2] deals with DBA/1J mice. Kind of test: Collagen-induced arthritis: chemokine and cytokine levels in paws. Conditions: 200 mg/kg/day gavage, 24 days after second collagen injection. Here is the method: as §1
The effect of 5′-IMS on the levels of the chemokine MIP-1α and the cytokines 1L-12 and TNF-α in paws of DBA/1J mice treated with subdermal injections of collagen to induce arthritis was studied. Gavage treatment with 5′-IMS (100 or 200 mg/kg/day, BID) commenced on the day of the second collagen injection and paws were taken 24 days later and homogenized for analysis. […] Data are expressed as mean ±SEM from n=10 animals. […] Accordingly, 5′-IMS, an illustrative inosine compound, is useful for treating or preventing an inflammation disease, particularly arthritis, in a patient.

Test [3] concerns DBA/1J mice. As to the kind of experiment: Collagen-induced arthritis: incidence and severity. Here is the method:
The effect of 5′-IMS in a murine model system of collagen-induced arthritis was studied. Male DBA/1J mice were injected intradermally on day 1 with 0.1 mL of an emulsion of bovine type II collagen plus complete Freunds's adjuvant (CFA). A second injection was administered on day 21. Treatment with 5′-IMS (100 or 200 mg/kg/day, BID) per gavage was begun on the day of the second collagen/CFA injection and continued throughout the study, which was terminated on day 45 (24 days after the second injection).
as §1
Arthritis was induced in DBA/1J mice by two 100 μL sub-dermal injections of a 1:1 mixture of bovine collagen type II (1 mg/mL) and complete Freund's adjuvant (1 mg/mL) 21 days apart. Gavage treatment with 5′-IMS (100 or 200 mg/kg/day, BID) commenced on the day of the second injection. […] Statistical analysis was performed by Student's t-test or fisher's exact test as appropriate. […]

Setting [4] is: 50, 100 and 300 μmoles/kg/day, vs vehicle treated DSS animals.

In the case of `O=S(=O)(O)OC[C@H]1O[C@@H](n2cnc3c(O)ncnc32)[C@H](O)[C@@H]1O` [5′-IMS, inosine 5′-monosulfate], in the test on DBA/1J mice [1], the “lipid peroxidation (reflected by MDA) in joints” value was “profoundly reduced” and the “neutrophil infiltration (reflected by MPO concentration) in joints” value is reported as “profoundly reduced”. In the test on DSS mice (setting [4]), the “protection against colonic shortening” value was “provided significant protection” and the “protection against visible histological damage” value was “provided significant protection”. For the same molecule, the “dose at which colonic MDA levels were reduced” value in the test on DSS mice (first statement ('For example')) is 50 µmol/kg/day. In addition, in the test on DSS mice (second statement of b313), the “dose at which MDA levels were reduced (second statement, 'Similarly')” value was found to be 50 µmol/kg/day. Besides, in the test with DBA/1J mice [2], the “levels of MIP-1α in paws” value was “significantly reduced” and the “levels of TNF-α in paws” value is “significantly reduced”. In addition, in the test with DBA/1J mice [2] (p=0.09), the “IL-12 levels in paws” value is given as “tended to reduce”. Also, the severity of arthritis entry in the test with DBA/1J mice [3] (100 or 200 mg/kg/day, BID, gavage) is “significantly reduced”. Further, in the test with DBA/1J mice [3] (both dosing regimens (100 or 200 mg/kg/day, BID, gavage), day 24 post second collagen injection, reduced from 90%), the prevalence of arthritis is recorded as 25%.
